From patent US9187472B2 (AbbVie Inc., priority 2012, dated 2015)
pIC50: −log10 of the molar value.

Columns and labels:
[1] = biological target: NAMPT (human, recombinant, C-terminally His-tagged) (Homo sapiens, UniProt P43490); assay: Time-Resolved Fluorescence Resonance Energy Transfer (TR-FRET) Binding Assay of NAMPT; conditions: without substrates; 6.8 nM NAMPT, 200 nM probe, 3 hours equilibration
Outline: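 Compounds, diluted in half-log steps, are mixed with enzyme (6.8 nM), fluorescent probe (200 nM) and Tb-anti-His antibody (1 nM) in pH 7.5 HEPES buffer containing 10 mM MgCl2 and 1 mM DTT. Plates equilibrate 3 h at room temperature; normalized FRET ratios are fitted by four-parameter logistic regression for IC50.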

NAMPT = NAMPT (Homo sapiens, UniProt P43490); assay: TR-FRET Binding Assay of NAMPT with PRPP; conditions: with 200 μM PRPP and 2.5 mM ATP; 2 nM NAMPT, 2 nM probe, 16 hours equilibration
Chain of NAMPT (P43490 whole entry): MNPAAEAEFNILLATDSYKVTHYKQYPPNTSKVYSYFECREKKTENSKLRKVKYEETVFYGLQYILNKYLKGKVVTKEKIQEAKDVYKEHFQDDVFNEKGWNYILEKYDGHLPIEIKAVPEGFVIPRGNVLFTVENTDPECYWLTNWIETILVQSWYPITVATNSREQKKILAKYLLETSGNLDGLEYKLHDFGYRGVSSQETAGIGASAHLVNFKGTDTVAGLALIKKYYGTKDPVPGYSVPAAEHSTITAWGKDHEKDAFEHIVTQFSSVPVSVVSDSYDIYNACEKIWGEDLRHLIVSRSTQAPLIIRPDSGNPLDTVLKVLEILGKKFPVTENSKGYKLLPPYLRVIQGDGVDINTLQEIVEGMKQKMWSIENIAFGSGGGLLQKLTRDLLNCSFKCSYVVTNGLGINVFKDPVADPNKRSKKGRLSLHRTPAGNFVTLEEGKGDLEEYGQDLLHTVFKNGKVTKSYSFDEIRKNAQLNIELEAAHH
Outline: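 Compounds were mixed with 2 nM His-tagged NAMPT, 2 nM probe, 1 nM terbium anti-His antibody, 200 μM PRPP and 2.5 mM ATP in assay buffer with 2% DMSO, then left 16 hours to permit possible enzymatic processing of compounds before time-resolved FRET was measured.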

PC3 cells = assay: NAMPT Cell Proliferation Assay; assay type: cell-based; conditions: Homo sapiens, PC-3, 120 h, 5 days incubation, cell viability by Cell Titer Glo
Outline: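 Seed PC3 at 500 cells/well (RPMI, 10% HI-FBS), attach overnight; add compound, 10-fold series 10 μM → 1×10^−5 μM; incubate 5 d, 37° C/5% CO2; luminescent viability readout; fit % inhibition sigmoidally for IC50.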

Chain of NAMPT (human, recombinant, C-terminally His-tagged) (P43490 whole entry): as above

pIC50 [1]	pIC50 (NAMPT)	pIC50 (PC3 cells)	Compound
< 5.00	8.29	5.20	O=C(NCc1ccn2ccnc2c1)c1cnc(N2C(=O)OC[C@@H]2COCc2ccccc2)s1 [Example 188, 2-{(4S)-4-[(benzyloxy)methyl]-2-oxo-1,3-oxazolidin-3-yl}-N-(imidazo[1,2-a]pyridin-7-ylmethyl)-1,3-thiazole-5-carboxamide]
7.44	9.11	8.54	O=C(NCc1ccn2ccnc2c1)c1ccc(C2CCN(C(=O)Cc3ccccc3F)C2)s1 (stereo not drawn) [Example 765, 5-{1-[(2-fluorophenyl)acetyl]pyrrolidin-3-yl}-N-(imidazo[1,2-a]pyridin-7-ylmethyl)thiophene-2-carboxamide]
7.24	9.35	8.66	O=C(NCc1ccc2nccn2c1)c1ccc(-c2cnn(CC3CCCCC3)c2)s1 [Example 179, 5-[1-(cyclohexylmethyl)-1H-pyrazol-4-yl]-N-(imidazo[1,2-a]pyridin-6-ylmethyl)thiophene-2-carboxamide]
< 5.00	9.36	5.47	CC(C)CC(=O)NC1(c2ccc(C(=O)NCc3ccn4ccnc4c3)s2)CCC1 [Example 469, N-(imidazo[1,2-a]pyridin-7-ylmethyl)-5-{1-[(3-methylbutanoyl)amino]cyclobutyl}thiophene-2-carboxamide]
7.82	8.78	8.66	Cc1ncsc1CCC(=O)N(CC1CCCO1)c1ncc(C(=O)NCc2ccc3nccn3c2)s1 (stereo not drawn) [Example 131, N-(imidazo[1,2-a]pyridin-6-ylmethyl)-2-{[3-(4-methyl-1,3-thiazol-5-yl)propanoyl](tetrahydrofuran-2-ylmethyl)amino}-1,3-thiazole-5-carboxamide]
6.80	9.36	7.71	CC(C)(C)OC(=O)N1CCC(c2ccc(NC(=O)NCc3ccn4ccnc4c3)cc2)C1 (stereo not drawn) [Example 302, tert-butyl 3-(4-{[(imidazo[1,2-a]pyridin-7-ylmethyl)carbamoyl]amino}phenyl)pyrrolidine-1-carboxylate]
6.40	9.56	8.03	O=C(NCc1ccn2ccnc2c1)c1ccc(C2CCN(C(=O)C3CCOCC3)CC2)cc1 [Example 232, N-(imidazo[1,2-a]pyridin-7-ylmethyl)-4-[1-(tetrahydro-2H-pyran-4-ylcarbonyl)piperidin-4-yl]benzamide]
7.84	9.64	9.15	O=C(NCc1ccn2ccnc2c1)c1ccc(-c2cnn(CC3CCCOC3)c2)s1 (stereo not drawn) [Example 253, N-(imidazo[1,2-a]pyridin-7-ylmethyl)-5-[1-(tetrahydro-2H-pyran-3-ylmethyl)-1H-pyrazol-4-yl]thiophene-2-carboxamide]
7.45	9.63	7.74	O=C(CC1CCCC1)Nc1ccc(NC(=O)NCc2ccn3ccnc3c2)cc1 [Example 118, 2-cyclopentyl-N-(4-{[(imidazo[1,2-a]pyridin-7-ylmethyl)carbamoyl]amino}phenyl)acetamide]
5.82	9.55	6.13	CC(C)(C)OC(=O)Nc1ccc(C(=O)NCc2ccn3ccnc3c2)cc1 [Example 207, tert-butyl {4-[(imidazo[1,2-a]pyridin-7-ylmethyl)carbamoyl]phenyl}carbamate]
7.58	9.77	8.60	CC(C)C(=O)N1CCC(c2ccc(C(=O)NCc3ccn4ccnc4c3)s2)CC1 [Example 259, N-(imidazo[1,2-a]pyridin-7-ylmethyl)-5-[1-(2-methylpropanoyl)piperidin-4-yl]thiophene-2-carboxamide]
6.70	9.57	6.55	Cn1cc(-c2ccc(C(=O)NCc3ccn4ccnc4c3)s2)cn1 [Example 345, N-(imidazo[1,2-a]pyridin-7-ylmethyl)-5-(1-methyl-1H-pyrazol-4-yl)thiophene-2-carboxamide]
5.98	8.74	7.20	Cn1cc(CC(=O)N(CC2CCCO2)c2ncc(C(=O)NCc3ccc4nccn4c3)s2)cn1 (stereo not drawn) [Example 183, N-(imidazo[1,2-a]pyridin-6-ylmethyl)-2-{[(1-methyl-1H-pyrazol-4-yl)acetyl](tetrahydrofuran-2-ylmethyl)amino}-1,3-thiazole-5-carboxamide]
5.75	8.98	5.12	O=C(NCc1ccc2nccn2c1)c1cnc(N2CCc3ccccc3C2)s1 [Example 108, 2-(3,4-dihydroisoquinolin-2(1H)-yl)-N-(imidazo[1,2-a]pyridin-6-ylmethyl)-1,3-thiazole-5-carboxamide]
6.67	9.45	8.31	Cn1cc(CC(=O)N(C[C@H]2CCCO2)c2ncc(C(=O)NCc3ccn4ccnc4c3)s2)cn1 [Example 202, N-(imidazo[1,2-a]pyridin-7-ylmethyl)-2-{[(1-methyl-1H-pyrazol-4-yl)acetyl][(2R)-tetrahydrofuran-2-ylmethyl]amino}-1,3-thiazole-5-carboxamide]
6.73	9.37	7.14	O=C(NCc1ccn2ccnc2c1)c1ccc(C2CCN(C(=O)C3CC3)C2)s1 (stereo not drawn) [Example 717, 5-[1-(cyclopropylcarbonyl)pyrrolidin-3-yl]-N-(imidazo[1,2-a]pyridin-7-ylmethyl)thiophene-2-carboxamide]
6.50	9.55	6.27	O=C(NCc1ccn2ccnc2c1)c1ccc(-c2cnn(CCO)c2)s1 [Example 317, 5-[1-(2-hydroxyethyl)-1H-pyrazol-4-yl]-N-(imidazo[1,2-a]pyridin-7-ylmethyl)thiophene-2-carboxamide]
6.92	8.16	8.13	O=C(CC1CCOCC1)Nc1ccc(C(=O)NCc2ccc3nccn3c2)cc1 [Example 79, N-(imidazo[1,2-a]pyridin-6-ylmethyl)-4-[(tetrahydro-2H-pyran-4-ylacetyl)amino]benzamide]
6.21	8.97	6.16	O=C(NCc1ccn2ccnc2c1)c1ccc(C2CN(C(=O)c3cccc(C(F)(F)F)c3)C2)cc1 [Example 671, N-(imidazo[1,2-a]pyridin-7-ylmethyl)-4-{1-[3-(trifluoromethyl)benzoyl]azetidin-3-yl}benzamide]
7.38	9.31	7.64	CC(C)COC(=O)N1CCC(c2ccc(C(=O)NCc3ccn4ccnc4c3)s2)CC1 [Example 571, 2-methylpropyl 4-{5-[(imidazo[1,2-a]pyridin-7-ylmethyl)carbamoyl]thiophen-2-yl}piperidine-1-carboxylate]
5.08	9.47	6.73	O=C(NCc1ccn2ccnc2c1)c1ccc(OC2CCN(C(=O)CN3CCOCC3)CC2)cc1 [Example 423, N-(imidazo[1,2-a]pyridin-7-ylmethyl)-4-{[1-(morpholin-4-ylacetyl)piperidin-4-yl]oxy}benzamide]
7.71	9.13	8.22	O=C(NCc1ccn2ccnc2c1)Nc1ccc(C2CCN(C(=O)c3cc(F)ccc3F)CC2)cc1 [Example 725, 1-{4-[1-(2,5-difluorobenzoyl)piperidin-4-yl]phenyl}-3-(imidazo[1,2-a]pyridin-7-ylmethyl)urea]
7.22	9.38	8.74	CC(C)(O)Cn1cc(-c2ccc(C(=O)NCc3ccc4nccn4c3)s2)cn1 [Example 176, 5-[1-(2-hydroxy-2-methylpropyl)-1H-pyrazol-4-yl]-N-(imidazo[1,2-a]pyridin-6-ylmethyl)thiophene-2-carboxamide]
5.08	9.10	5.09	CC(C)C(=O)N1CC[C@H](Oc2ccc(C(=O)NCc3ccn4ccnc4c3)cc2)C1 [Example 351, N-(imidazo[1,2-a]pyridin-7-ylmethyl)-4-{[(3S)-1-(2-methylpropanoyl)pyrrolidin-3-yl]oxy}benzamide]
7.31	9.62	8.07	CC(C)C(=O)N1CCC(c2ccc(NC(=O)NCc3ccn4ccnc4c3)cc2)CC1 [Example 228, 1-(imidazo[1,2-a]pyridin-7-ylmethyl)-3-{4-[1-(2-methylpropanoyl)piperidin-4-yl]phenyl}urea]
7.24	9.75	8.24	O=C(NCc1ccn2ccnc2c1)c1ccc(-c2cnn(CC3CCC3)c2)o1 [Example 481, 5-[1-(cyclobutylmethyl)-1H-pyrazol-4-yl]-N-(imidazo[1,2-a]pyridin-7-ylmethyl)furan-2-carboxamide]
7.69	9.64	9.17	CC(C)[C@@H]1COC(=O)N1c1ccc(C(=O)NCc2ccn3ccnc3c2)s1 [Example 250, N-(imidazo[1,2-a]pyridin-7-ylmethyl)-5-[(4R)-2-oxo-4-(propan-2-yl)-1,3-oxazolidin-3-yl]thiophene-2-carboxamide]
6.17	9.57	7.78	O=C(NCCCCC1CCN(C(=O)C2CCOCC2)CC1)Nc1ccc2nccn2c1 [Example 69, 1-imidazo[1,2-a]pyridin-6-yl-3-{4-[1-(tetrahydro-2H-pyran-4-ylcarbonyl)piperidin-4-yl]butyl}urea]
